From patent publication US9682963B2, “Pyridine derivatives as soft rock inhibitors” (Amakem NV, priority 2013, dated 2017)

Columns and labels:
[1] = Stability assay in human plasma; format: in vitro ADME; settings: 1 μM in human plasma, LC-MS/MS; read-out: t½ human plasma
Experimental: Compounds are incubated at a concentration of 1 μM in human (or animal) plasma. Samples are taken at fixed time points and the remnant of compound is determined by LC-MS/MS after protein precipitation. Half life in table C.2.1 is expressed in minutes.

[2] = system: MLC-T18/S19 phosphorylation in A7r5 cells (endogenous ROCK); test: MLC phosphorylation assay (ELISA) in A7r5 cells; format: cell-based; settings: Rattus norvegicus, serum-free medium, phospho-MLC-T18/S19 ELISA, read-out: EC50 MLC-PP
Experimental: Rat smooth muscle cell line A7r5 is used. The endogenous expression of ROCK results in a constitutive phosphorylation of the regulatory myosin light chain at T18/S19. A7r5 cells were plated in DMEM supplemented with 10% FCS in multiwall cell culture plates. After serum starvation overnight, cells were incubated with compounds in serum-free medium.
Quantification of MLC-T18/S19 phosphorylation is assessed in 96 well-plates via ELISA using a phospho-MLC-T18/S19 specific antibody and a secondary detection antibody. Raw data were converted into percent substrate phosphorylation relative to high controls, which were set to 100%. EC50 values were determined using GraphPad Prism 5.01 software using a nonlinear regression curve fit with variable hill slope.

[3] = Stability towards drug metabolizing enzymes in lung S9; format: in vitro ADME; settings: human, lung S9 fraction, lung S9 with NADPH, UDPGA, PAPS and GSH, read-out: t½ human lung S9
Experimental: A 1 μM solution of the ROCK inhibitors is incubated with a reaction mixture containing lung S9 (EDTA-free) as well as the cofactors NADPH, UDPGA, PAPS and GSH. Samples are collected at 0, 15, 30 and 60 minutes post incubation. Negative control samples incubated with ROCK inhibitors and S9 fraction in the absence of cofactors are run in parallel. By using LC-MS/MS analysis, the percent of ROCK compounds remaining at each time point, the metabolic half-life of the ROCK compounds (expressed in minutes in table C.2.2) and the metabolic half-life of the control compounds are determined.

[4] = Stability in mouse intestinal homogenate; format: in vitro ADME; settings: 40 mg/ml mouse intestinal homogenate, read-out: t½ (min) mouse
[5] = Stability in human intestinal tissue homogenate; format: in vitro ADME; settings: 40 mg/ml human intestinal homogenate, read-out: t½ (min) human
Experimental: A 1 μM solution of the ROCK inhibitors is incubated with human intestinal tissue homogenate (final concentration: 40 mg/ml) Samples are collected at 0, 20 and 60 minutes post incubation. By using LC-MS/MS analysis, the percent of ROCK compounds remaining at each time point, the metabolic half-life of the ROCK compounds (expressed in minutes in table C.2.3) and the metabolic half-life of control compounds are determined.

[6] = system: male BALB/c mice; test: Acute LPS lung challenge model, BALF cell counts; format: in vivo, mouse; settings: 0.1 and 0.01 mg/kg intratracheally 0.5 hr before LPS; BALF at 24 hrs; versus dexamethasone 1 mg/kg oral
Experimental: FIG. 1: Anti-inflammatory activity of Cpd4 in an acute LPS lung challenge model (mouse). Data is provided as bronchoalveolar lavage fluid (BALF) cell count (10^3/μl)±SEM. WBC: White Blood Cell. NEUT: Neutrophil. Dex: Dexamethasone control.
Selected compounds of the invention were evaluated in vivo in an acute LPS lung challenge model. Groups of 6 male BALB/c mice were used for each tested dose and for positive and negative controls. Under anesthesia with gas anesthetics (isoflurane), test substances and vehicle (0.9% NaCl, 1 mL/kg) were administered intratracheally (IT) to test animals 0.5 hr prior to challenge with ˜80 μg/kg of E. coli lipopolysaccharide (LPS, Sigma, serotype 055:B5, in sterile saline, 2 μg in 20 μL per mouse intratracheally). Dexamethasone, the positive control, at 1 mg/kg in 2% Tween 80 was given orally to test animals one hour before LPS challenge. Mice were anaesthetized with isoflurane at 24 hrs after LPS challenge, 0.5 mL of phosphate buffered saline (PBS, pH 7.4) was instilled into the lung twice through a tracheal cannula, after which about a total of 0.6˜0.8 mL of bronchoalveolar lavage fluid (BALF) was obtained. Total cell and neutrophils counts in BALF were then determined and one-way ANOVA followed by Dunnett's test was used to analyze difference between the vehicle control and treated groups. Significant difference is considered at P<0.05.

Row | SMILES | half-life at 1 μM [1] | EC50 [2] | half-life at 1 μM [3] | half-life at 1 μM [4] | half-life at 1 μM [5] | anti-inflammatory activity (BALF WBC and neutrophil count) [6]
1 | NCc1ccc(C(=O)Nc2ccncc2F)cc1-c1cccc(C(=O)Nc2ccc(CNC3CCOC3=O)cc2)c1 (stereo not shown) [Cpd 1, 6-(aminomethyl)-N^3-(3-fluoropyridin-4-yl)-N^3′-(4-(((2-oxotetrahydrofuran-3-yl)amino)methyl)phenyl)-[1,1′-biphenyl]-3,3′-dicarboxamide] | < 20 min | 100 to 1000 nM | > 60 min | – | – | –
2 | NCc1ccc(C(=O)Nc2ccncc2F)cc1-c1cccc(C(=O)Nc2ccc(OC3CCOC3=O)cc2)c1 (stereo not shown) [Cpd 3, 6-(aminomethyl)-N^3-(3-fluoropyridin-4-yl)-N^3′-(4-((2-oxotetrahydrofuran-3-yl)oxy)phenyl)-[1,1′-biphenyl]-3,3′-dicarboxamide] | < 20 min | 100 to 1000 nM | – | – | – | –
3 | NCc1ccc(C(=O)Nc2ccncc2F)cc1-c1cccc(C(=O)Nc2cccc(SC3CCOC3=O)c2)c1 (stereo not shown) [Cpd 8, 6-(aminomethyl)-N^3-(3-fluoropyridin-4-yl)-N^3′-(3-((2-oxotetrahydrofuran-3-yl)thio)phenyl)-[1,1′-biphenyl]-3,3′-dicarboxamide] | < 20 min | 100 to 1000 nM | – | – | – | –
4 | NCc1ccc(C(=O)Nc2ccncc2F)cc1-c1cccc(C(=O)Nc2ccc(SC3CCOC3=O)cc2F)c1 (stereo not shown) [Cpd 12, 6-(aminomethyl)-N^3-(3-fluoropyridin-4-yl)-N^3′-(2-fluoro-4-((2-oxotetrahydrofuran-3-yl)thio)phenyl)-[1,1'-biphenyl]-3,3′-dicarboxamide] | < 20 min | < 100 nM | – | – | – | –
5 | NCc1ccc(C(=O)Nc2ccncc2F)cc1-c1cccc(NC(=O)c2ccc(NC3CCOC3=O)cc2)c1 (stereo not shown) [Cpd 13, 6-(aminomethyl)-N-(3-fluoropyridin-4-yl)-3′-(4-((2-oxotetrahydrofuran-3-yl)amino)benzamido)-[1,1′-biphenyl]-3-carboxamide] | < 20 min | < 100 nM | > 60 min | – | – | –

Further lines, with some results ahead:

Row | half-life at 1 μM [1] | EC50 [2] | half-life at 1 μM [3] | half-life at 1 μM [4] | half-life at 1 μM [5] | SMILES | anti-inflammatory activity (BALF WBC and neutrophil count) [6]
6 | < 20 min | < 100 nM | > 60 min | > 120 min | > 120 min | NCc1ccc(C(=O)Nc2ccncc2F)cc1-c1cccc(C(=O)Nc2ccc(SCC3CCOC3=O)cc2)c1 (stereo not shown) [Cpd 2, 6-(aminomethyl)-N^3-(3-fluoropyridin-4-yl)-N^3′-(4-(((2-oxotetrahydrofuran-3-yl)methyl)thio)phenyl)-[1,1′-biphenyl]-3,3′-dicarboxamide] | –
7 | < 20 min | < 100 nM | > 60 min | – | – | NCc1ccc(C(=O)Nc2ccncc2F)cc1-c1cccc(NC(=O)c2ccc(SC3CCOC3=O)cc2)c1 (stereo not shown) [Cpd 4, 6-(aminomethyl)-N-(3-fluoropyridin-4-yl)-3′-(4-((2-oxotetrahydrofuran-3-yl)thio)benzamido)-[1,1′-biphenyl]-3-carboxamide] | equivalent to the dexamethasone control
8 | < 20 min | < 100 nM | > 60 min | > 120 min | – | NCc1ccc(C(=O)Nc2ccncc2F)cc1-c1cccc(C(=O)Nc2ccc(NC3CCOC3=O)cc2)c1 (stereo not shown) [Cpd 5, 6-(aminomethyl)-N^3-(3-fluoropyridin-4-yl)-N^3′-(4-((2-oxotetrahydrofuran-3-yl)amino)phenyl)-[1,1′-biphenyl]-3,3′-dicarboxamide] | –
9 | < 20 min | < 100 nM | > 60 min | – | – | NCc1ccc(C(=O)Nc2ccncc2F)cc1-c1cccc(C(=O)Nc2ccc(SC3CCOC3=O)cc2)c1 (stereo not shown) [Cpd 6, 6-(aminomethyl)-N^3-(3-fluoropyridin-4-yl)-N^3′-(4-((2-oxotetrahydrofuran-3-yl)thio)phenyl)-[1,1′-biphenyl]-3,3′-dicarboxamide] | –
10 | < 20 min | < 100 nM | > 60 min | > 120 min | > 120 min | CN(c1ccc(NC(=O)c2cccc(-c3cc(C(=O)Nc4ccncc4F)ccc3CN)c2)cc1)C1CCOC1=O (stereo not shown) [Cpd 7, 6-(aminomethyl)-N^3-(3-fluoropyridin-4-yl)-N^3′-(4-(methyl(2-oxotetrahydrofuran-3-yl)amino)phenyl)-[1,1′-biphenyl]-3,3′-dicarboxamide] | –
11 | < 20 min | < 100 nM | – | – | – | CC1CC(Sc2ccc(NC(=O)c3cccc(-c4cc(C(=O)Nc5ccncc5F)ccc4CN)c3)cc2)C(=O)O1 (stereo not shown) [Cpd 9, 6-(aminomethyl)-N^3-(3-fluoropyridin-4-yl)-N^3′-(4-((5-methyl-2-oxotetrahydrofuran-3-yl)thio)phenyl)-[1,1′-biphenyl]-3,3′-dicarboxamide] | –
12 | < 20 min | < 100 nM | – | – | – | NCc1ccc(C(=O)Nc2ccncc2F)cc1-c1cccc(C(=O)Nc2ccc(SC3COC(=O)C3)cc2)c1 (stereo not shown) [Cpd 11, 6-(aminomethyl)-N^3-(3-fluoropyridin-4-yl)-N^3′-(4-((2-oxotetrahydrofuran-4-yl)thio)phenyl)-[1,1′-biphenyl]-3,3′-dicarboxamide] | –
